Data from patent publication EP2875816A1, “N-(3-hydroxy-5,7-dimethyladamantan-1-yl)-2-(3-oxobenzo[d]isothiazol-2(3h)-yl)acetamide as a novel inhibitor for staphylococcus aureus sortase a” (Latvian Biomedical Research and Study Centre, priority 2013, dated 2015).
Converted amounts (≈) assume the structure as drawn.

Columns and labels:
Staphylococcus aureus = experiment: Minimum inhibitory concentration (MIC), broth dilution micromethod; format: cell-based; conditions: 24 hours at 37 °C, complete inhibition of cell growth, OD 600 nm, read-out: MIC, S.aureus
Description: (§1) The MIC values of test compounds that inhibited cell growth of Gram-positive Staphylococcus aureus and S. epidermidis were determined by broth dilution micromethod. A series of solutions with a range from 0.1 µg/ml to 400 µg/ml were made in using a logarithmical phase culture with OD600 = 0.1 (corresponds to ~1.2 x 10^8 CFU/ml in 96-well plate standard. The plate was incubated at 37 °C for 24 hours and growth was assayed with a microplate reader by monitoring the absorption at 600 nm. All experiments were done in triplicate, and repeated three times.

S. epidermidis = experiment: as above; format: cell-based; conditions: Staphylococcus epidermidis; 24 hours at 37 °C, complete inhibition of cell growth, OD 600 nm
Description: as §1

[1] = test system: NIH/3T3 mouse fibroblast cell line; experiment: Cytotoxicity / cell growth inhibition, MTT test; format: cell-based; conditions: NIH3T3, 48 hours exposure, mean of three independent experiments ±SD
Description: The growth inhibitory effect of the newly synthesized compound was studied on NIH/3T3mouse fibroblast cell line. NIH/3T3 cells were seeded into 96-well microplates with initial density of 1x10^4 cells per well in DMEM culture medium with 10% FCS. After 24 hours of incubation, cells were exposed to a graded series of concentrations of chemical compounds for additional 48 hours. The cell medium was removed and 100 µl of fresh culture medium without phenol red and 1 mM MTT solution was added to each well. After 3 hours of incubation, an equal volume of 1% SDS-HCl solution was added and plates were incubated for additional 4 hours. Absorbance was measured at 570 nm and the data were fitted to a four parameter variable slope equation to determine the IC50 value.
The cytotoxic response is dependent on the cell line tested and NIH/3T3 mouse fibroblasts are a well-characterized cellular model used to study toxicity and drug delivery processes. In the table 3 data are given as the mean of three independent experiments ±SD.

[2] = biological target: T1, S. aureus sortase A (SrtAΔN59, residues 60-206) (Staphylococcus aureus, UniProt Q2FV99); experiment: SrtA enzyme FRET inhibition assay (dose-response, recombinant sortase A with FRET peptide substrate containing the LPETG motif); format: biochemical
T1 construct: expressed with an N-terminal deletion of 59 amino acid residues (SrtAΔN59, residues 60-206); made in house
From the text: The catalytically active recombinant sortase A enzyme used for these studies was expressed with an N-terminal deletion of 59 amino acid residues (SrtAΔN59, residues 60-206). The first step included high-throughput screening of potent S. aereus SrtA inhibitors and selection of new antibacterial substances as sortase A inhibitors. In order to identify potent inhibitors of S. aureus sortase A, a high-throughput screening (HTS) of a diverse library of 50,000 drug-like low-molecular weight molecules was performed, which led to the identification of novel promising drug candidates.
These assays included determination of 50% SrtA inhibition concentration (IC50) of the newly synthesized derivative in dose-response experiments using the recombinant sortase
A enzyme incubated with FRET peptide substrate containing the LPETG motif, minimal inhibitory concentration (MIC) test with two staphylococcal species to measure the antimicrobial efficacy of the new inhibitory molecule, and toxicity test using a normal mouse embryonic fibroblasts cell line NIH/3T3 to determine the cell growth IC50 inhibitory concentration.
Values are means ±SD (n = 5).

SrtA = biological target: T2, SrtA (Staphylococcus aureus, UniProt Q2FV99); experiment: Binding to SrtA monitored by 2D [15N,1H]-HSQC NMR spectroscopy, with dialysis; conditions: 2D 15N-1H HSQC spectrum unchanged after dialysis against NMR buffer
T2 construct: expressed with an N-terminal deletion of 59 amino acid residues (SrtAΔN59, residues 60-206); made in house
From the text: • Fig. 1 - represents the binding of a selected inhibitor N-(adamantan-1-yl)-2-(3-oxo-2,3-dihydro-1,2-benzothiazol-2-yl)acetamide to SrtA monitored by 2D [^15N,^1H]-HSQC NMR spectroscopy. (a) Spectrum of SrtA in absence of inhibitor. […] (a) SrtA active site after modification by inhibitor. The inhibitor (in cyan) and near-by side chains of SrtA are shown with sticks and labeled. Side chains are colored according to their type: hydrophobic in yellow, negatively charged in red, positively charged in blue and hydrophilic in grey. Hydrogens are omitted for clarity. […] (c) Molecular surface representation of SrtA in complex with inhibitor. It can be seen in the figure that the inhibitor occupies almost all volume of the substrate pocket, the majority of interactions are hydrophobic and hydrogen bond is at the R139.
Determination of the complex structure of selected inhibitor and sortase enzyme was performed by using the nuclear magnetic resonance (NMR) spectroscopy methods. The collected NMR data allowed to specify the structure of inhibitory complexes.
To verify that the selected inhibitor can react with a cysteine thiol (such as the SrtA active site C 184) we performed a reaction with cysteine in the NMR tube and observed the formation of a covalent adduct (Figure 2). The chemical structure of the product was verified using proton 1D and 2D NMR methods.

SMILES	MIC (Staphylococcus aureus) [µg/mL]	MIC (S. epidermidis) [µg/mL]	IC50 [1] [µg/mL]	IC50 [2] [µM]	Mode of binding to the active site of SrtA (SrtA)
CC12CC3(C)CC(O)(C1)CC(NC(=O)Cn1sc4ccccc4c1=O)(C2)C3 [N-(3-hydroxy-5,7-dimethyladamantan-1-yl)-2-(3-oxobenzo[d]isothiazol-2(3H)-yl)acetamide]	8 (≈ 20.7 µM)	8 (≈ 20.7 µM)	8.1 (≈ 21 µM)	3.9	
O=C(Cn1sc2ccccc2c1=O)NC12CC3CC(CC(C3)C1)C2 [N-(adamantan-1-yl)-2-(3-oxo-2,3-dihydro-1,2-benzothiazol-2-yl)acetamide]	1 (≈ 2.92 µM)	0.5 (≈ 1.46 µM)	1.3 (≈ 3.8 µM)		irreversible binding
